Columns and labels:
[1] = tested on: hairless mice; assay: Skin barrier recovery (TEWL) after tape stripping with topical application; format: in vivo, mouse
Experimental: Permeability barrier function was evaluated by measurement of transepidermal water loss (TEWL) with an electric water analyzer, as described previously(Denda et al, 1998). For barrier recovery experiments, the flank skin on both sides was subjected to repeated tape stripping until the TEWL reached 7-10 mg per cm^2 per h, as described previously(Denda et al, 1998). As for nNOS-deficient mice and wild-type, the TEWL of the ears was measured over the same sites at 1, 3 and 6 hours after tape stripping. This is because the hair shaving may induce barrier disruption. Therefore, the ears that are hairless parts were selected for TEWL measurements. […] […] The areas were covered with plastic membranes for 15 min and then the membranes were removed. Two points on one flank were measured and 4-8 mice were used to evaluate the effect of each treatment. We always disrupted the barrier between 7:00 AM and 8:00 AM and carried out the measurements of the barrier repair thereafter to avoid the influence of circadian rhythm on the repair rate(Denda and Tsuchiya, 2000). TEWL was measured over the same sites at 1, 3 and 6 hours after barrier disruption. The barrier recovery results are expressed as percent recovery, because of variations from day to day in the extent of barrier disruption. In each animal, the percentage recovery was calculated according to the following formula:

[2] = tested on: skin of hairless mice; assay: NO release from skin organ culture after tape stripping; design: species or system mouse; settings: pre-incubation with inhibitor 100 μM; skin organ culture in PBS, 30 min at 37° C.
Description: Four male hairless mice (7-10 wk old) were killed by cervical dislocation under anesthesia and skin samples were taken immediately from both flanks. Subcutaneous fat was removed with a scalpel and the skin samples that contained epidermis and dermis, were cut into squares (1.5×1.5 cm^2). […] of skin from the two flanks of each animal were placed, epidermis side upwards, in separate 35-mm culture dishes kept in an ice/water bath, and one of them was tape-stripped four times. The other piece of skin was not treated. One milliliter of phosphate-buffered saline (PBS) was added to both dishes, which were incubated for 30 min at 37° C. After the incubation, 50 μL aliquots of the PBS were removed. NO released into the PBS was quantified using a total nitric oxide assay kit (Immuno-Biological Laboratories Co., Ltd, Gunma, Japan), according to the manufacturer's instruction.

[3] = tested on: hairless mice; assay: Epidermal hyperplasia induced by barrier disruption (acetone) under low humidity; format: in vivo, mouse; settings: for epidermal proliferation (number of BrdU-positive cells, DNA synthesis) / epidermal thickness: topical application after acetone treatment under low humidity, compared with acetone treated skin; for epidermal hyperplasia induced by acetone treatment under low environmental humidity: topical application, 1 µM, 48 hours in dry condition
Experimental: Hairless mice were kept separately in 7.2-liter cages in which the relative humidity was maintained at less than 10% with dry air as described previously(Denda et al, 1998). The temperature was the same in all cases (22-25° C.), and fresh air was circulated 100 times per hour. Animals were kept out of the direct stream of air. During the experiments, the animal's behavior was not restricted. The level of NH3 was always below 1 ppm. Animals were first kept in a dry condition for 48 hours and then the skin on both flanks was treated with acetone-soaked cotton balls, as described previously(Denda et al, 1998). The procedure was terminated when TEWL reached 2.5-3.5 mg per cm^2 per h. Immediately after the barrier disruption, 100 μl of nNOS inhibitor and ODQ aqueous solution (1 μM) was applied on one side of the treated area. Water was applied on the other side. Then the animals were again kept in the dry condition for 48 hours. After the experiments, animals were euthanized with diethylether inhalation and skin samples were taken from the treated areas. One hour before euthanization, 20 μl per g body weight of a 10 mM solution of bromodeoxyuridine (BrdU) was injected intraperitoneally. Untreated control mice were also treated with BrdU at the same time. After fixation with 4% paraformaldehyde, full thickness skin samples were embedded in paraffin, sectioned (4 μm), and processed for hematoxylin and eosin staining. On each section, five areas were selected at random; the thickness of the epidermis was measured with an optical micrometer, and the mean value was calculated. For the assessment of DNA synthesis, the sections were immunostained with anti-BrdU antibodies. On each section, five areas were selected at random from one section; the number of immunostained cells per 1 mm of epidermis was counted and the epidermal thickness was measured with an optical micrometer. The mean value was calculated. Measurements were carried out in an observer-blinded fashion. NO evaluation in hairless mouse epidermis

[4] = tested on: Normal human epithelial keratinocytes (NHEK); assay: Ca2+ imaging (fura-2) in single cultured keratinocytes; format: cell-based
Experimental: Normal human epithelial keratinocytes (NHEK) were purchased from Kurabo (Osaka, Japan). NHEK were cultured in serum-free keratinocyte growth medium, consisting of Humedia-KB2 (Kurabo, Osaka, Japan) supplemented with bovine pituitary extract (0.4% vol/vol), human recombinant epidermal growth (0.1 μg per mL), insulin (10 μg per mL), and hydrocortisol (0.5 μg per mL). The medium was replaced every 2-3 d. For the electrophysiological experiments, NHEK (passage 1-3 cells) were seeded onto collagen-coated glass coverslips and used within 4 d. Ca^2+ imaging in single keratinocytes
NHEK were grown to approximately 80-100% confluency on collagen-coated cover glass chambers (Nalge Nunc, Naperville, Ill.). Changes in [Ca^2+] in single cells were measured by the fura-2 method as described by Grynkiewicz et al. (1985) with minor modifications(Koizumi et al, 1998). In brief, the culture medium was replaced with a balanced salt solution (BSS) of the following composition (mM): NaCl 150, KCl 5, CaCl21.8, MgCl2 1.2, HEPES 25, NaH2PO4 1.2 and D-glucose 10 (pH 7.4) or calcium-free BSS which had the same composition as the above BSS with 1 mM EGTA and no added CaCl2. Cells were loaded with 5 μM fura-2 acetoxymethylester (fura-2AM, Molecular Probes, Eugene, Oreg.) at room temperature (21-23° C.) in BSS for 45 min, washed with BSS, and incubated for a further 30 min to allow de-esterification of the loaded dye. The cover slip was mounted on an inverted epifluorescence microscope (IX70, TS Olympus, Tokyo, Japan), equipped with a 75 W xenon lamp and band-pass filters of 340 and 380 nm. The image data, recorded by a high-sensivity CCD (charge-coupled-device) camera (ORCA-ER, Hamamatsu Photonics, Hamamatsu, Japan) were evaluated with a Ca^2+ analyzing system (AQUACOSMOS/RATIO, Hamamatsu Photonics). SNAP (300 μM), ODQ (10 μM) and nifedipine (50 μM) were dissolved in the BSS and the cells were exposed to the solution by perfusion. We observed four lots of pooled cells for each treatment. […] Data were represented as the ratio of fluorescence intensities at 340 and 380 nm.

[5] = topical application of 1 μM aqueous solution, 1, 3 and 6 hours after tape stripping, vs water control

CSC(=N)N [iNOS inhibitor, S-methylisothiourea]
barrier recovery after tape stripping (percent recovery of TEWL) [1, 5]: did not affect the barrier recovery | increase of NO level (release) after tape stripping [2]: did not affect

O=c1onc2n1-c1cc(Br)ccc1OC2 [NS 2028, 4H-8-bromo-1,2,4-oxadiazolo[3,4-dibenz[b][1,4]oxazin-1-one]
barrier recovery after tape stripping (percent recovery of TEWL) [1, 5]: accelerated the barrier recovery

CCCNC(=N)NCCC[C@H](N)C(=O)O [nNOS inhibitor, N^ω-propyl-L-arginine]
barrier recovery after tape stripping (percent recovery of TEWL) [1, 5]: accelerated the barrier repair | increase of NO level (release) after tape stripping [2]: blocked | epidermal proliferation (number of BrdU-positive cells, DNA synthesis) [3]: Significant reductions | epidermal thickness [3]: Significant reductions | epidermal hyperplasia induced by acetone treatment under low environmental humidity [3]: prevented the epidermal hyperplasia

CC(=O)NC(C(=O)O)C(C)(C)SN=O (racemic) [SNAP, S-nitroso-N-acetyl-D,L-penicillamine]
barrier recovery after tape stripping (percent recovery of TEWL) ([1]; topical application of one millimolar solution of SNAP, vs control): delayed skin barrier recovery | intracellular calcium concentration (ratio 340 nm/380 nm, fura-2) ([4]; 300 μM SNAP, calcium-containing BSS): increased | intracellular calcium concentration (ratio 340 nm/380 nm, fura-2) ([4]; SNAP, calcium-free medium): an increase of [Ca^2+] was induced

COC(=O)[C@@H](N)CCCNC(=N)N[N+](=O)[O-] [L-NAMA, L-N(G)-nitro-L-arginine methyl ester]
barrier recovery after tape stripping (percent recovery of TEWL) [1, 5]: accelerated the barrier repair

Nc1c[n+](N2CCOCC2)no1.[Cl-] [SIN, SIN-1 chloride]
barrier recovery after tape stripping (percent recovery of TEWL) [1, 5]: delayed the barrier recovery

O=c1onc2cnc3ccccc3n12 [ODQ, 1H-[1,2,4]oxadiazolo[4,3-a]quinoxalin-1-one]
barrier recovery after tape stripping (percent recovery of TEWL) [1, 5]: accelerated the barrier recovery | effect on increase of intracellular calcium induced by SNAP ([4]; 300 μM SNAP with 10 μM ODQ or 50 μM nifedipine): blocked | epidermal proliferation (number of BrdU-positive cells, DNA synthesis) [3]: Significant reductions | epidermal thickness [3]: Significant reductions | epidermal hyperplasia induced by acetone treatment under low environmental humidity [3]: prevented the hyperplasia

From patent publication US20070232595A1, “Method for accelerating cutaneous barrier recovery” (Shiseido Company, Ltd., priority 2006, published 2007)
